Results as given in ChEMBL document CHEMBL4610028, “Variegatic acid from the edible mushroom Tylopilus ballouii inhibits TNF-α production and PKCβ1 activity in leukemia cells” (Bioorg Med Chem Lett, 2020).

Key:
[1] = target: T1, Protein kinase C beta type (Rattus norvegicus, UniProt P68403); test: Inhibition of PKCbeta in rat RBL2H3 cells assessed as inhibition of ionomycin-stimulated TNFalpha release preincubated for 15 mins followed by ionomycin stimulation and measured after 3 hrs by ELISA; assay type: cell-based, RBL-2H3
[2] = target: T1, Protein kinase C beta type; test: Inhibition of PKCbeta in rat RBL2H3 cells assessed as inhibition of ionomycin-stimulated beta-hexosaminidase release preincubated for 15 mins followed by ionomycin stimulation and measured after 3 hrs by 4-nitropheny1-2-acetamide-2-deoxy-beta-glucopyranoside substrate based colorimetric method; assay type: cell-based, RBL-2H3
[3] = target: T1, Protein kinase C beta type; test: Inhibition of PKCbeta in rat RBL2H3 cells assessed as inhibition of anti-DNP IgE-stimulated TNFalpha release preincubated for 15 mins followed by mouse anti-DNP IgE stimulation and measured after 3 hrs by ELISA; assay type: cell-based, RBL-2H3
[4] = target: Protein kinase C beta type (Homo sapiens, UniProt P05771); test: Inhibition of recombinant full-length N-temrinal GST-tagged human PKC beta1 expressed in baculovirus infected Sf9 cells using TMB as substrate incubated for 4.5 hrs by colorimetric analysis

T1 sequence (P68403 whole entry): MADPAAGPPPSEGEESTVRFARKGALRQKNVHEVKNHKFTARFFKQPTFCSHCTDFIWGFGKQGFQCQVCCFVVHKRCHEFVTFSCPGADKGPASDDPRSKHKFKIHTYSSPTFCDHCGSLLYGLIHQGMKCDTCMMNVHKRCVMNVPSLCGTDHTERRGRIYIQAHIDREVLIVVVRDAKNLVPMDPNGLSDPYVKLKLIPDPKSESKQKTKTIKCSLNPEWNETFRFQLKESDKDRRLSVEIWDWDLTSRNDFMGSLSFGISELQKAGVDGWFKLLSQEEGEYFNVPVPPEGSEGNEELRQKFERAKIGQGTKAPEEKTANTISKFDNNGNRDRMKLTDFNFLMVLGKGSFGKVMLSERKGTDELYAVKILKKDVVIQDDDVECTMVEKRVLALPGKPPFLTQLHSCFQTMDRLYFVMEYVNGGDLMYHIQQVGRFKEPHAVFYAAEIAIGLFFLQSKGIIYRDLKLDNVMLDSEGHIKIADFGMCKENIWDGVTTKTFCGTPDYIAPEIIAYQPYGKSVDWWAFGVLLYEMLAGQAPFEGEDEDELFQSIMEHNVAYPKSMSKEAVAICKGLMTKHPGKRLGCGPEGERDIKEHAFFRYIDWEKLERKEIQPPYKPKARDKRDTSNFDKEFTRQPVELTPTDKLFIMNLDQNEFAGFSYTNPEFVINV

Structure (SMILES): O=C1O/C(=C(/C(=O)O)c2ccc(O)c(O)c2)C(O)=C1c1ccc(O)c(O)c1
- IC50 [1]: 20.1 µM
- IC50 [2]: 22.2 µM
- IC50 [3]: 16.8 µM
- IC50 [4]: 36.2 µM
- inhibition [4]: Dose-dependent effect
